# ChEMBL document CHEMBL6092192 (J Med Chem, 2024)
# Active and inactive are the calls of the source. No cut-off for these calls is given here.
# Assays:
# [1] = Toxicity in BALB/c nude mouse xenografted with […] CT26/TAXOL cells assessed as effect on heart at 100 mg/kg/day, IG in presence of paclitaxel/anti-PD-1 measured after 14 days by H and E staining based analysis; format: organism-based; conditions: in vivo, po, 336 h, time 14 day
# [2] = Toxicity in BALB/c nude mouse xenografted with […] CT26/TAXOL cells assessed as effect on heart at 100 mg/kg/day, IG in presence of paclitaxel measured after 14 days by H and E staining based analysis; format: organism-based; conditions: in vivo, po, 336 h, time 14 day
# [3] = Toxicity in BALB/c nude mouse assessed as effect on liver liver injury at 100 mg/kg/day, IG measured after 21 days in presence of paclitaxel by H and E staining based analysis; format: organism-based; conditions: in vivo, po, 504 h, time 21 day
# [4] = test system: KB 3-1; test: Reversal of paclitaxel resistance in human KB 3-1 cells assessed as reversal fold by measuring ratio of paclitaxel IC50 to paclitaxel IC50 in presence of test compound at 4 uM incubated for 72 hrs by MTT assay; format: functional
# [5] = test system: CT26/TAXOL; test: Antitumor T-cell immune response in […] cells xenografted in BALB/c nude mouse model at 100 mg/kg/day, IG in presence of anti-PD-1/paclitaxel measured after 14 days; format: functional, organism-based; conditions: time 14.0 day
# [6] = target: ATP-dependent translocase ABCB1 (Homo sapiens, UniProt P08183); test: Induction of thermal stabilization of ABCB1 in human SW620/AD300 cells at 200 uM measured after 30 mins by thermal shift assay; format: cell-based; conditions: sw620/ad300, 0.5 h
# Chain of ATP-dependent translocase ABCB1 (P08183 whole entry): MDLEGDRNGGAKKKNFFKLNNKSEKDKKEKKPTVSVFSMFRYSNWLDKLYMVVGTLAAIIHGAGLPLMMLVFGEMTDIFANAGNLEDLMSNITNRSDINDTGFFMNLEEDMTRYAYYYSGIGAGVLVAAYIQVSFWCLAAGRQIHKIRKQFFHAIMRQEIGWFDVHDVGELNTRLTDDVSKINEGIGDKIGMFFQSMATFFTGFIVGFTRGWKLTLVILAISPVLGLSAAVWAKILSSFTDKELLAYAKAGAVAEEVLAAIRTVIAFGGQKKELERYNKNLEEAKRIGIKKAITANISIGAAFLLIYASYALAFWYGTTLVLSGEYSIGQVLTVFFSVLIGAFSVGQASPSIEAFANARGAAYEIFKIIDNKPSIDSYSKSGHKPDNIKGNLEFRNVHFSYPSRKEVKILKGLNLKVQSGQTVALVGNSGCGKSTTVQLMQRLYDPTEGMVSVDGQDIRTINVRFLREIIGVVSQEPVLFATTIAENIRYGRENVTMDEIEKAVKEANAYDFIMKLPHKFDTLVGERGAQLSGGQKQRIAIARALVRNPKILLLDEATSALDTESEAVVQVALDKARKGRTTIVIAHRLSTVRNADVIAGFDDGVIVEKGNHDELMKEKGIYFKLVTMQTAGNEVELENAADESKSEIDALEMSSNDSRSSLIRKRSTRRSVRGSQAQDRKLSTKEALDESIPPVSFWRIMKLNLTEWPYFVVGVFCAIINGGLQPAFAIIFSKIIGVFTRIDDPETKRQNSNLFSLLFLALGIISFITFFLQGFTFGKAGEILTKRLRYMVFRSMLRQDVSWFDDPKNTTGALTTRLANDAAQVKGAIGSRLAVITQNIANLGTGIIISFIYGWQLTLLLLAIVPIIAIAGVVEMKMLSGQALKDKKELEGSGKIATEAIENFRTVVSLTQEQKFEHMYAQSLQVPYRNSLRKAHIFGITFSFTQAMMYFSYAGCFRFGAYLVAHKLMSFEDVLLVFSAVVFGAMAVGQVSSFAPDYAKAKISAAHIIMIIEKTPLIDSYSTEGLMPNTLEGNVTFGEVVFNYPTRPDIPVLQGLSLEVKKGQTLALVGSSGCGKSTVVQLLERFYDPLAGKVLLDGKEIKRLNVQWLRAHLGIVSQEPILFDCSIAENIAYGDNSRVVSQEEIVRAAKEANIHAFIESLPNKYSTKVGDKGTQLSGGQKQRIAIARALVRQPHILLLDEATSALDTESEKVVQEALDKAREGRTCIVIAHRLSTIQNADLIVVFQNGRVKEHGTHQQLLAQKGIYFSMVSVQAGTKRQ
# [7] = Toxicity in BALB/c nude mouse xenografted with […] CT26/TAXOL cells assessed as mortality at 100 mg/kg/day, IG measured upto 14 days; format: organism-based; conditions: in vivo, po, 336 h, time < 14 day
# [8] = test system: SW620/AD300; test: Antitumor activity against human SW620/AD300 cells xenografted in male BALB/c nude mouse model assessed as reduction in tumor volume at 100 mg/kg/day, IG measured after 21 days in presence of paclitaxel; format: functional, organism-based; conditions: time 21.0 day
# [9] = test system: HEK293; test: Cytotoxicity against HEK293 cells transfected with pcDNA3.1 assessed as survival rate at 2 uM measured after 72 hrs by MTT assay relative to control; format: functional; conditions: Homo sapiens, read-out: Survival
# [10] = Toxicity in Sprague-Dawley rat assessed as maximum tolerated dose measured for 14 days administered as single oral dose; conditions: in vivo, time 14 day
# [11] = test system: KB-C2; test: Cytotoxicity against human KB-C2 cells assessed as survival rate at 5 uM measured after 72 hrs by MTT assay relative to control; format: functional; conditions: read-out: Survival
# [12] = Toxicity in BALB/c nude mouse xenografted with […] CT26/TAXOL cells assessed as change in body weight at 100 mg/kg/day, IG measured upto 14 days; format: organism-based; conditions: in vivo, po, 336 h, time < 14 day
# [13] = Cmax in 12 hrs fasted Sprague-Dawley rat at 1 mg/kg, iv measured upto 720 mins by HPLC-MS/MS analysis; format: ADME, organism-based; conditions: in vivo
# [14] = test system: KB 3-1; test: Cytotoxicity against human KB 3-1 cells assessed as survival rate at 2 uM measured after 72 hrs by MTT assay relative to control; format: functional; conditions: read-out: Survival
# [15] = Toxicity in BALB/c nude mouse xenografted with […] CT26/TAXOL cells assessed as effect on kidney at 100 mg/kg/day, IG in presence of paclitaxel measured after 14 days by H and E staining based analysis; format: organism-based; conditions: in vivo, po, 336 h, time 14 day
# [16] = test system: HEK293; test: Cytotoxicity against HEK293 cells harbouring ABCB1 assessed as survival rate at 5 uM measured after 72 hrs by MTT assay relative to control; format: functional; conditions: Homo sapiens, read-out: Survival
# [17] = Reversal of paclitaxel resistance in HEK293 cells transfected with pcDNA3.1 assessed as reversal fold by measuring ratio of paclitaxel IC50 to paclitaxel IC50 in presence of test compound at 4 uM incubated for 72 hrs by MTT assay; format: functional, Homo sapiens
# [18] = test system: KB-C2; test: Reversal of paclitaxel resistance in human KB-C2 cells assessed as reversal fold by measuring ratio of paclitaxel IC50 to paclitaxel IC50 in presence of test compound at 2 uM incubated for 72 hrs by MTT assay; format: functional
# [19] = test system: SW620/AD300; test: Antitumor activity against human SW620/AD300 cells xenografted in male BALB/c nude mouse model assessed as reduction in tumor volume at 100 mg/kg/day, IG measured after 21 days; format: functional, organism-based; conditions: time 21.0 day
# [20] = AUC (0 to infinity) in 12 hrs fasted Sprague-Dawley rat at 1 mg/kg, iv measured upto 720 mins by HPLC-MS/MS analysis; format: ADME, organism-based; conditions: in vivo
# [21] = Clearance in 12 hrs fasted Sprague-Dawley rat at 1 mg/kg, iv measured upto 720 mins by HPLC-MS/MS analysis; format: ADME, organism-based; conditions: in vivo
# [22] = Toxicity in BALB/c nude mouse xenografted with […] CT26/TAXOL cells assessed as effect on kidney at 100 mg/kg/day, IG measured after 14 days by H and E staining based analysis; format: organism-based; conditions: in vivo, po, 336 h, time 14 day
# [23] = target: Cytochrome P450 3A4 (Homo sapiens, UniProt P08684); test: Activation of recombinant CYP3A4 in human liver microsomes at 30 uM measured upto 40 mins in presence of NADPH generating system by fluorescence based analysis; format: ADME, Microsome
# Chain of Cytochrome P450 3A4 (P08684 whole entry): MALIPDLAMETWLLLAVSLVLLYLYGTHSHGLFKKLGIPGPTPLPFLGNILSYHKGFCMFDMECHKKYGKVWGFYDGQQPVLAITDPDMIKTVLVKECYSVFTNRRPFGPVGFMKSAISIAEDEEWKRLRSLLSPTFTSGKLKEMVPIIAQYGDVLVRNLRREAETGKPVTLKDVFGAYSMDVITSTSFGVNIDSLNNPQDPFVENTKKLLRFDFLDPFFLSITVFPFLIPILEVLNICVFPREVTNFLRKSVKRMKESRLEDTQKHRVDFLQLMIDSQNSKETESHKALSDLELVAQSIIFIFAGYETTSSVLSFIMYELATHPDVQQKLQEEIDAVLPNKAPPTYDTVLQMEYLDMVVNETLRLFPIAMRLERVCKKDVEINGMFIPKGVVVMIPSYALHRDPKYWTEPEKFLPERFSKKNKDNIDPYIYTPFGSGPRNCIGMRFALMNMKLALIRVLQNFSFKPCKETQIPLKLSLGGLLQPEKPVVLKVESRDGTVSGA
# [24] = test system: KB 3-1; test: Cytotoxicity against human KB 3-1 cells assessed as survival rate at 5 uM measured after 72 hrs by MTT assay relative to control; format: functional; conditions: read-out: Survival
# [25] = Oral bioavailability in 12 hrs fasted Sprague-Dawley rat at 10 mg/kg measured upto 720 mins by HPLC-MS/MS analysis; format: ADME, organism-based; conditions: in vivo
# [26] = test system: CD8-positive T cell; test: Activation of immune response in human CD8-positive T cell assessed as increase in IFN-gamma level at 4 uM by ELISA method; format: functional, cell-based
# [27] = Toxicity in BALB/c nude mouse xenografted with […] CT26/TAXOL cells assessed as effect on liver at 100 mg/kg/day, IG measured after 14 days by H and E staining based analysis; format: organism-based; conditions: in vivo, po, 336 h, time 14 day
# [28] = Toxicity in BALB/c nude mouse xenografted with […] CT26/TAXOL cells assessed as effect on spleen at 100 mg/kg/day, IG in presence of paclitaxel/anti-PD-1 measured after 14 days by H and E staining based analysis; format: organism-based; conditions: in vivo, po, 336 h, time 14 day
# [29] = test system: SW-620; test: Reversal of paclitaxel resistance in human SW620 cells assessed as reversal fold by measuring ratio of paclitaxel IC50 to paclitaxel IC50 in presence of test compound at 2 uM incubated for 72 hrs by MTT assay; format: functional
# [30] = MRT (0 to t) in 12 hrs fasted Sprague-Dawley rat at 10 mg/kg, po measured upto 720 mins by HPLC-MS/MS analysis; format: ADME, organism-based; conditions: in vivo
# [31] = test system: SW620/AD300; test: Reversal of paclitaxel resistance in human SW620/AD300 cells assessed as reversal fold by measuring ratio of paclitaxel IC50 to paclitaxel IC50 in presence of test compound at 4 uM incubated for 72 hrs by MTT assay; format: functional
# [32] = Toxicity in BALB/c nude mouse xenografted with […] CT26/TAXOL cells assessed as mortality at 100 mg/kg/day, IG measured upto 14 days in presence of paclitaxel/anti-PD-1; format: organism-based; conditions: in vivo, po, 336 h, time < 14 day
# [33] = Tmax in 12 hrs fasted Sprague-Dawley rat at 1 mg/kg, iv measured upto 720 mins by HPLC-MS/MS analysis; format: ADME, organism-based; conditions: in vivo
smiles,measurement,setting,value
O=c1c2c([nH]c3nc(SCc4nc5ccccc5s4)nn13)CCC2,Activity,[1],Non-toxic
same,Activity,[2],Non-toxic
same,Activity,[3],Non-toxic
same,Ratio IC50,[4],1.39
same,Activity,[5],Active
same,Activity,[6],Active
same,Activity,[7],Non-toxic
same,Activity,[8],Active
same,viability at 2 µM,[9],97.8%
same,MTD at 336 h,[10],1000 mg/kg
same,viability at 5 µM,[11],94.4%
same,Activity,[12],Non-toxic
same,Cmax,[13],380 ng/mL
same,viability at 2 µM,[14],99.6%
same,Activity,[15],Non-toxic
same,viability at 5 µM,[16],91.2%
same,Ratio IC50,[17],1.16
same,Ratio IC50,[18],106.85
same,Activity,[19],Active; Compound Showed Negligible Effect
same,AUC(0-inf),[20],915 ng·h/mL
same,clearance,[21],18.3 mL/min/kg
same,Activity,[22],Non-toxic
same,Activity,[23],Active
same,viability at 5 µM,[24],95.9%
same,bioavailability,[25],63.9%
same,Activity,[26],Active
same,Activity,[27],Non-toxic
same,Activity,[28],Non-toxic
same,Ratio IC50,[29],1.01
same,MRT last at 12 h,[30],6.87 h
same,Ratio IC50,[31],730.33
same,Activity,[32],Non-toxic
same,Tmax,[33],4.98 min
